Laboratory results published in ChEMBL document CHEMBL1154297, “Inhibitor profiling of the Pseudomonas aeruginosa virulence factor LasB using N-alpha mercaptoamide template-based inhibitors” (Bioorg Med Chem Lett, 2009).

Molecular target: Elastase (Pseudomonas aeruginosa (strain ATCC 15692 / PAO1 / 1C / PRS 101 / LMG12228), UniProt P14756)
Test: Inhibition of Pseudomonas aeruginosa LasB by fluorimetric assay in buffer of pH 7.2
Details: not given; call rule not given here

Sequence of Elastase (P14756 whole entry): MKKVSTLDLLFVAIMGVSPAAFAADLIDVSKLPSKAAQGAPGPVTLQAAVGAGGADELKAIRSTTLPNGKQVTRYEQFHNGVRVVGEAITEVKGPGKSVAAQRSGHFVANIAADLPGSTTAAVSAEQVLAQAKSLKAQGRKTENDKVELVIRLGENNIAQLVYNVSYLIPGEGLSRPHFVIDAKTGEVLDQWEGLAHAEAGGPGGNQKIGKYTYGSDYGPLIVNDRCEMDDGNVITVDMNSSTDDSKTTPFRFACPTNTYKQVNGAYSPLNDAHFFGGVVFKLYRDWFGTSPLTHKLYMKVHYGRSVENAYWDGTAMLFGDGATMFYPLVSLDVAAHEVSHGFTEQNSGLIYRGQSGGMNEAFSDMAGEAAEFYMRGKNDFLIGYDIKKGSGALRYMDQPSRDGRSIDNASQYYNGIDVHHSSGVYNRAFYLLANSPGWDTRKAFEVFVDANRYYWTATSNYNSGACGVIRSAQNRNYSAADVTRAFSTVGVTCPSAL

Ki	SMILES
Not Active	NCCCC[C@H](NC(=O)[C@H](CO)NC(=O)CS)C(N)=O
Not Active	NC(=O)C[C@H](NC(=O)CS)C(=O)N[C@@H](CC(=O)O)C(N)=O
Not Active	NC(=O)CC[C@H](NC(=O)CS)C(=O)N[C@@H](CC(=O)O)C(N)=O
Not Active	CC(C)[C@H](NC(=O)[C@H](CC(=O)O)NC(=O)CS)C(N)=O
Not Active	CC(C)[C@H](NC(=O)[C@H](CCCNC(=N)N)NC(=O)CS)C(N)=O
Not Active	NC(=O)[C@H](CC(=O)O)NC(=O)[C@H](Cc1ccccc1)NC(=O)CS
Not Active	NC(=O)[C@H](CC(=O)O)NC(=O)[C@H](CCC(=O)O)NC(=O)CS
Not Active	CC[C@@H](C)[C@H](NC(=O)CS)C(=O)N[C@@H](Cc1ccccc1)C(N)=O
Not Active	CC(C)C[C@H](NC(=O)[C@H](CCCNC(=N)N)NC(=O)CS)C(N)=O
Not Active	N=C(N)NCCC[C@H](NC(=O)[C@H](CCC(=O)O)NC(=O)CS)C(N)=O
Not Active	N=C(N)NCCC[C@H](NC(=O)[C@H](Cc1ccccc1)NC(=O)CS)C(N)=O
Not Active	NC(=O)[C@H](CC(=O)O)NC(=O)[C@H](CC(=O)O)NC(=O)CS
Not Active	CC(C)C[C@H](NC(=O)[C@@H](NC(=O)CS)[C@@H](C)O)C(N)=O
Not Active	NC(=O)[C@H](CC(=O)O)NC(=O)[C@H](CS)NC(=O)CS
Not Active	NC(=O)[C@H](Cc1c[nH]c2ccccc12)NC(=O)[C@H](CO)NC(=O)CS
Not Active	NC(=O)[C@H](CC(=O)O)NC(=O)[C@H](CO)NC(=O)CS
Not Active	NC(=O)CC[C@H](NC(=O)CS)C(=O)N[C@@H](Cc1ccccc1)C(N)=O
Not Active	NC(=O)[C@H](CC(=O)O)NC(=O)[C@H](Cc1c[nH]cn1)NC(=O)CS
Not Active	N=C(N)NCCC[C@H](NC(=O)[C@H](CCCNC(=N)N)NC(=O)CS)C(N)=O
Not Active	CC(C)C[C@H](NC(=O)CS)C(=O)N[C@H](C(N)=O)C(C)C
Not Active	CC[C@@H](C)[C@H](NC(=O)CS)C(=O)N[C@@H](CCCNC(=N)N)C(N)=O
Not Active	C[C@@H](O)[C@H](NC(=O)CS)C(=O)N[C@@H](CC(=O)O)C(N)=O
Not Active	NCCCC[C@H](NC(=O)CS)C(=O)N[C@@H](Cc1c[nH]c2ccccc12)C(N)=O

Same assay, conditions: read-out: Ki

SMILES	Ki [µM]
CC(C)[C@H](NC(=O)[C@H](Cc1ccc(O)cc1)NC(=O)CS)C(N)=O	0.77
CC(C)C[C@H](NC(=O)CS)C(=O)N[C@@H](Cc1c[nH]c2ccccc12)C(N)=O	300
CSCC[C@H](NC(=O)CS)C(=O)N[C@H](C(N)=O)C(C)C	98
C[C@@H](O)[C@H](NC(=O)CS)C(=O)N[C@@H](Cc1ccccc1)C(N)=O	225
CC(C)[C@H](NC(=O)[C@@H](NC(=O)CS)C(C)C)C(N)=O	10
C[C@@H](O)[C@H](NC(=O)CS)C(=O)N[C@@H](CCCN=C(N)N)C(N)=O	616
NCCCC[C@H](NC(=O)[C@H](CCCCN)NC(=O)CS)C(N)=O	433
N=C(N)NCCC[C@H](NC(=O)[C@H](CC(N)=O)NC(=O)CS)C(N)=O	280
CC(C)C[C@H](NC(=O)[C@H](Cc1c[nH]cn1)NC(=O)CS)C(N)=O	306
C[C@H](NC(=O)CS)C(=O)N[C@@H](CC(=O)O)C(N)=O	316
NCCCC[C@H](NC(=O)[C@@H]1CCCN1C(=O)CS)C(N)=O	766
CC(C)[C@H](NC(=O)[C@@H]1CCCN1C(=O)CS)C(N)=O	157
CC[C@@H](C)[C@H](NC(=O)CS)C(=O)N[C@H](C(N)=O)C(C)C	1.8
CC(C)[C@H](NC(=O)CS)C(=O)N[C@@H](CCCCN)C(N)=O	22
NC(=O)[C@H](Cc1ccccc1)NC(=O)CNC(=O)CS	51
N=C(N)NCCC[C@H](NC(=O)CS)C(=O)N[C@@H](CCCCN)C(N)=O	135
CC(C)C[C@H](NC(=O)[C@@H](NC(=O)CS)C(C)C)C(N)=O	69
NC(=O)[C@H](Cc1c[nH]c2ccccc12)NC(=O)[C@H](Cc1ccc(O)cc1)NC(=O)CS	14
NC(=O)CC[C@H](NC(=O)CS)C(=O)N[C@@H](Cc1c[nH]c2ccccc12)C(N)=O	91
CC(C)[C@H](NC(=O)[C@H](Cc1ccccc1)NC(=O)CS)C(N)=O	11
CC(C)[C@H](NC(=O)[C@H](CCC(N)=O)NC(=O)CS)C(N)=O	937
NC(=O)[C@H](Cc1ccccc1)NC(=O)[C@H](Cc1cnc[nH]1)NC(=O)CS	21
NC(=O)[C@H](CC(=O)O)NC(=O)[C@H](Cc1ccc(O)cc1)NC(=O)CS	5.5
NC(=O)[C@H](Cc1ccccc1)NC(=O)[C@H](Cc1ccc(O)cc1)NC(=O)CS	6.5
NC(=O)C[C@H](NC(=O)CS)C(=O)N[C@@H](Cc1c[nH]c2ccccc12)C(N)=O	70
CC[C@@H](C)[C@H](NC(=O)CS)C(=O)N[C@@H](CCCCN)C(N)=O	190

SMILES	Ki [µM]
NC(=O)CC[C@H](NC(=O)CS)C(=O)N[C@@H](CCCN=C(N)N)C(N)=O	217
CC(C)[C@H](NC(=O)CS)C(=O)N[C@@H](CCCN=C(N)N)C(N)=O	69
CC(C)C[C@H](NC(=O)[C@H](CCC(N)=O)NC(=O)CS)C(N)=O	540
NCCCC[C@H](NC(=O)[C@H](Cc1c[nH]cn1)NC(=O)CS)C(N)=O	332
NCCCC[C@H](NC(=O)CNC(=O)CS)C(N)=O	451
CC(C)[C@H](NC(=O)[C@H](C)NC(=O)CS)C(N)=O	51
NCCCC[C@H](NC(=O)[C@H](CCC(=O)O)NC(=O)CS)C(N)=O	553
NCCCC[C@H](NC(=O)[C@H](Cc1ccc(O)cc1)NC(=O)CS)C(N)=O	8.5
NC(=O)[C@H](Cc1ccccc1)NC(=O)[C@H](CO)NC(=O)CS	75
CC(C)C[C@H](NC(=O)CS)C(=O)N[C@@H](CCCCN)C(N)=O	14
NC(=O)[C@H](Cc1ccccc1)NC(=O)[C@H](CCCN=C(N)N)NC(=O)CS	224
NCCCC[C@H](NC(=O)[C@H](CC(N)=O)NC(=O)CS)C(N)=O	289
NCCCC[C@H](NC(=O)[C@H](CC(=O)O)NC(=O)CS)C(N)=O	491
CSCC[C@H](NC(=O)CS)C(=O)N[C@@H](CCCNC(=N)N)C(N)=O	6.6
N=C(N)NCCC[C@H](NC(=O)[C@H](CO)NC(=O)CS)C(N)=O	444
CC(C)[C@H](NC(=O)[C@H](CS)NC(=O)CS)C(N)=O	161
CC[C@@H](C)[C@H](NC(=O)CS)C(=O)N[C@@H](Cc1c[nH]c2ccccc12)C(N)=O	366
NC(=O)[C@H](Cc1c[nH]c2ccccc12)NC(=O)[C@H](Cc1cnc[nH]1)NC(=O)CS	18
NC(=O)[C@H](CC(=O)O)NC(=O)[C@H](CCCN=C(N)N)NC(=O)CS	650
NC(=O)[C@H](CCCN=C(N)N)NC(=O)[C@H](Cc1ccc(O)cc1)NC(=O)CS	3
CC(C)C[C@H](NC(=O)CS)C(=O)N[C@@H](CC(=O)O)C(N)=O	587
NCCCC[C@H](NC(=O)CS)C(=O)N[C@@H](CC(=O)O)C(N)=O	971
CC(C)C[C@H](NC(=O)CNC(=O)CS)C(N)=O	138
CSCC[C@H](NC(=O)CS)C(=O)N[C@@H](Cc1ccccc1)C(N)=O	867
NC(=O)[C@H](CCCN=C(N)N)NC(=O)[C@H](Cc1c[nH]c2ccccc12)NC(=O)CS	25
CC(C)C[C@H](NC(=O)[C@H](CC(C)C)NC(=O)CS)C(N)=O	53

SMILES	Ki [µM]
CC[C@@H](C)[C@H](NC(=O)CS)C(=O)N[C@@H](CC(=O)O)C(N)=O	142
CSCC[C@H](NC(=O)CS)C(=O)N[C@@H](Cc1c[nH]c2ccccc12)C(N)=O	204
CC(C)[C@H](NC(=O)[C@H](CCCCN)NC(=O)CS)C(N)=O	555
NC(=O)[C@H](Cc1c[nH]c2ccccc12)NC(=O)[C@H](CS)NC(=O)CS	108
CC(C)C[C@H](NC(=O)[C@@H]1CCCN1C(=O)CS)C(N)=O	246
CC(C)[C@H](NC(=O)CS)C(=O)N[C@@H](Cc1ccccc1)C(N)=O	72
CC(C)[C@H](NC(=O)[C@@H](NC(=O)CS)[C@@H](C)O)C(N)=O	377
CC(C)C[C@H](NC(=O)[C@H](CC(=O)O)NC(=O)CS)C(N)=O	118
NC(=O)[C@H](CC(=O)O)NC(=O)[C@H](Cc1c[nH]c2ccccc12)NC(=O)CS	38
CC(C)[C@H](NC(=O)CNC(=O)CS)C(N)=O	457
CC(C)C[C@H](NC(=O)[C@H](CC(N)=O)NC(=O)CS)C(N)=O	508
CSCC[C@H](NC(=O)CS)C(=O)N[C@@H](CCCCN)C(N)=O	3.9
NC(=O)[C@H](Cc1ccccc1)NC(=O)[C@H](Cc1c[nH]c2ccccc12)NC(=O)CS	1.1
C[C@H](NC(=O)CS)C(=O)N[C@@H](CCCCN)C(N)=O	153
NC(=O)[C@H](Cc1c[nH]c2ccccc12)NC(=O)[C@H](Cc1ccccc1)NC(=O)CS	206
NC(=O)[C@H](Cc1c[nH]c2ccccc12)NC(=O)[C@H](Cc1c[nH]c2ccccc12)NC(=O)CS	49
NC(=O)[C@H](Cc1ccccc1)NC(=O)[C@H](Cc1ccccc1)NC(=O)CS	146
N=C(N)NCCC[C@H](NC(=O)[C@H](CS)NC(=O)CS)C(N)=O	646
CSCC[C@H](NC(=O)CS)C(=O)N[C@@H](CC(=O)O)C(N)=O	7
NC(=O)[C@H](Cc1c[nH]c2ccccc12)NC(=O)[C@@H]1CCCN1C(=O)CS	562
N=C(N)NCCC[C@H](NC(=O)[C@@H]1CCCN1C(=O)CS)C(N)=O	56
NC(=O)[C@H](Cc1c[nH]c2ccccc12)NC(=O)[C@H](CCCN=C(N)N)NC(=O)CS	125
CC(C)C[C@H](NC(=O)CS)C(=O)N[C@@H](CCCNC(=N)N)C(N)=O	623
NC(=O)[C@H](CCCN=C(N)N)NC(=O)[C@H](CC(=O)O)NC(=O)CS	551
NC(=O)[C@H](Cc1c[nH]c2ccccc12)NC(=O)CNC(=O)CS	122
C[C@H](NC(=O)CS)C(=O)N[C@@H](Cc1c[nH]c2ccccc12)C(N)=O	395
